Our source for the IC50 values is article PMC12811658, “Design, Synthesis, and Structural Evolution of Pseudo‐Natural Product IDO1 Inhibitors and Degraders” (Angewandte Chemie (International Ed. in English), 2025).

Molecules are shown by their SMILES.

The subject of the assay is Kyn levels in BxPC3 cells (kynurenine generated by IDO1). Nature of the assay: Cellular Kyn assay (automated Kyn screening assay). Conditions: Homo sapiens, BXPC-3, 48 h, IFN-γ, L-Trp and compounds 48 h, mean ± SD, read-out: IC50 (Kyn assay), reduction of kynurenine levels. It is filed as cell-based.
As for `Cc1ccc(NC(=O)OC[C@]23CN(S(=O)(=O)C(C)C)C[C@H]2C[C@H]2C[C@@H]3C2(C)C)cc1` [compound 54, ((3aS,4R,6R,7aS)-2-(isopropylsulfonyl)-5,5-dimethyloctahydro-3aH-4,6-methanoisoindol-3a-yl) methyl p-tolylcarbamate], the IC50 (as a rule, the midpoint of a concentration-inhibition curve) turned out to be 4700 ± 410 nM.
Turning to `Cc1ccc(NC(=O)OC[C@]23CN(S(=O)(=O)C4CCCCC4)C[C@H]2C[C@H]2C[C@@H]3C2(C)C)cc1` [compound 55, ((3aS,4R,6R,7aS)-2-(cyclohexylsulfonyl)-5,5-dimethyloctahydro-3aH-4,6-methanoisoindol-3a-yl)methyl p-tolylcarbamate], the IC50 worked out at 5100 ± 400 nM.
Regarding `Cc1ccc(NC(=O)OC[C@]23CN(S(=O)(=O)c4ccc(C(F)(F)F)cc4)C[C@H]2C[C@H]2C[C@@H]3C2(C)C)cc1` [compound 56, ((3aS,4R,6R,7aS)-5,5-dimethyl-2-((4-(trifluoromethyl)phenyl)sulfonyl)octahydro-3aH-4,6-methanoisoindol-3a-yl)methyl p-tolylcarbamate], the IC50 was determined as 2500 ± 1100 nM.
For the compound `COc1ccc(S(=O)(=O)N2C[C@H]3C[C@H]4C[C@H](C4(C)C)[C@@]3(COC(=O)Nc3ccc(C)cc3)C2)cc1` [compound 57, ((3aS,4R,6R,7aS)-2-((4-methoxyphenyl)sulfonyl)-5,5-dimethyloctahydro-3aH-4,6-methanoisoindol-3a-yl)methyl p-tolylcarbamate], the 50% inhibitory concentration (IC50) was greater than 10000 nM.
Regarding `Cc1ccc(NC(=O)OC[C@]23CN(S(=O)(=O)c4ccc(OC(F)(F)F)cc4)C[C@H]2C[C@H]2C[C@@H]3C2(C)C)cc1` [compound 58, ((3aS,4R,6R,7aS)-5,5-dimethyl-2-((4-(trifluoromethoxy)phenyl)sulfonyl)octahydro-3aH-4,6-methanoisoindol-3a-yl)methyl p-tolylcarbamate], the IC50 came to 3000 ± 1300 nM.
Consider `Cc1ccc(NC(=O)OC[C@]23CN(S(=O)(=O)c4ccccc4Br)C[C@H]2C[C@H]2C[C@@H]3C2(C)C)cc1` [compound 59, ((3aS,4R,6R,7aS)-2-((2-bromophenyl)sulfonyl)-5,5-dimethyloctahydro-3aH-4,6-methanoisoindol-3a-yl)methyl p-tolylcarbamate], for which the IC50 was 6200 ± 1700 nM.
Take `CC1(C)[C@H]2C[C@@H]3CN(S(=O)(=O)c4cccnc4)C[C@]3(COC(=O)Nc3ccc(I)cc3)[C@@H]1C2` [compound 61, ((3aS,4R,6R,7aS)-5,5-dimethyl-2-(pyridin-3-ylsulfonyl)octahydro-3aH-4,6-methanoisoindol-3a-yl)methyl (4-iodophenyl)carbamate]: the IC50 stood at 6100 ± 900 nM.
Consider `Cc1ccc(S(=O)(=O)N2C[C@H]3C[C@H]4C[C@H](C4(C)C)[C@@]3(COC(=O)Nc3ccc(I)cc3)C2)cn1` [compound 62, ((3aS,4R,6R,7aS)-5,5-dimethyl-2-((6-methylpyridin-3-yl)sulfonyl)octahydro-3aH-4,6-methanoisoindol-3a-yl)methyl (4-iodophenyl)carbamate], for which the IC50 worked out at 1300 ± 300 nM.
Consider `CC1(C)[C@H]2C[C@@H]3CN(S(=O)(=O)c4cccs4)C[C@]3(COC(=O)Nc3ccc(I)cc3)[C@@H]1C2` [compound 63, ((3aS,4R,6R,7aS)-5,5-dimethyl-2-(thiophen-2-ylsulfonyl)octahydro-3aH-4,6-methanoisoindol-3a-yl)methyl (4-iodophenyl)carbamate], for which the IC50 is 3500 ± 300 nM.
Under `CC1(C)[C@H]2C[C@@H]3CN(S(=O)(=O)c4ccc5ccccc5c4)C[C@]3(COC(=O)Nc3ccc(I)cc3)[C@@H]1C2` [compound 64, ((3aS,4R,6R,7aS)-5,5-dimethyl-2-(naphthalen-2-ylsulfonyl)octahydro-3aH-4,6-methanoisoindol-3a-yl)methyl (4-iodophenyl)carbamate] stands 400 ± 100 nM.
As for `CC1(C)[C@H]2C[C@@H]3CN(S(=O)(=O)c4ccccc4)C[C@]3(COC(=O)Nc3ccc(I)cc3)[C@@H]1C2` [compound 65, ((3aS,4R,6R,7aS)-5,5-dimethyl-2-(phenylsulfonyl)octahydro-3aH-4,6-methanoisoindol-3a-yl)methyl (4-iodophenyl)carbamate], the IC50 worked out at 2600 ± 500 nM.
On to `Cc1ccccc1S(=O)(=O)N1C[C@H]2C[C@H]3C[C@H](C3(C)C)[C@@]2(COC(=O)Nc2ccc(I)cc2)C1` [compound 66, ((3aS,4R,6R,7aS)-5,5-dimethyl-2-(o-tolylsulfonyl)octahydro-3aH-4,6-methanoisoindol-3a-yl)methyl (4-iodophenyl)carbamate], for which the 50% inhibitory concentration (IC50) was 650 ± 270 nM.
As to `Cc1cccc(S(=O)(=O)N2C[C@H]3C[C@H]4C[C@H](C4(C)C)[C@@]3(COC(=O)Nc3ccc(I)cc3)C2)c1` [compound 67, ((3aS,4R,6R,7aS)-5,5-dimethyl-2-(m-tolylsulfonyl)octahydro-3aH-4,6-methanoisoindol-3a-yl)methyl (4-iodophenyl)carbamate], the IC50 amounted to 1100 ± 500 nM.
Under `Cc1ccc(S(=O)(=O)N2C[C@H]3C[C@H]4C[C@H](C4(C)C)[C@@]3(COC(=O)Nc3ccc(I)cc3)C2)cc1` [compound 68, ((3aS,4R,6R,7aS)-5,5-dimethyl-2-tosyloctahydro-3aH-4,6-methanoisoindol-3a-yl)methyl (4-iodophenyl)carbamate] stands 720 ± 270 nM; under `CC(C)c1ccc(S(=O)(=O)N2C[C@H]3C[C@H]4C[C@H](C4(C)C)[C@@]3(COC(=O)Nc3ccc(I)cc3)C2)cc1` [compound 69, ((3aS,4R,6R,7aS)-2-((4-isopropylphenyl)sulfonyl)-5,5-dimethyloctahydro-3aH-4,6-methanoisoindol-3a-yl)methyl (4-iodophenyl)carbamate], 140 ± 20 nM; under `CC1(C)[C@H]2C[C@@H]3CN(S(=O)(=O)c4ccc(-c5ccccc5)cc4)C[C@]3(COC(=O)Nc3ccc(I)cc3)[C@@H]1C2` [compound 70, ((3aS,4R,6R,7aS)-2-([1,1'-biphenyl]-4-ylsulfonyl)-5,5-dimethyloctahydro-3aH-4,6-methanoisoindol-3a-yl)methyl (4-iodophenyl)carbamate], 340 ± 170 nM.
`CC1(C)[C@H]2C[C@@H]3CN(S(=O)(=O)c4ccc(C5CCCCC5)cc4)C[C@]3(COC(=O)Nc3ccc(I)cc3)[C@@H]1C2` [compound 71, ((3aS,4R,6R,7aS)-2-((4-cyclohexylphenyl)sulfonyl)-5,5-dimethyloctahydro-3aH-4,6-methanoisoindol-3a-yl)methyl (4-iodophenyl)carbamate]: the IC50 was found to be 1100 ± 300 nM.
For `CC1(C)CCC(C)(C)c2cc(S(=O)(=O)N3C[C@H]4C[C@H]5C[C@H](C5(C)C)[C@@]4(COC(=O)Nc4ccc(I)cc4)C3)ccc21` [compound 73, ((3aS,4R,6R,7aS)-5,5-dimethyl-2-((5,5,8,8-tetramethyl-5,6,7,8-tetrahydronaphthalen-2-yl)sulfonyl)octahydro-3aH-4,6-methanoisoindol-3a-yl)methyl (4-iodophenyl)carbamate], the half-inhibitory concentration (IC50) came to 450 ± 390 nM.
On to `CC(C)(C)Cc1ccc(S(=O)(=O)N2C[C@H]3C[C@H]4C[C@H](C4(C)C)[C@@]3(COC(=O)Nc3ccc(I)cc3)C2)cc1` [compound 74, ((3aS,4R,6R,7aS)-5,5-dimethyl-2-((4-neopentylphenyl)sulfonyl)octahydro-3aH-4,6-methanoisoindol-3a-yl)methyl (4-iodophenyl)carbamate], for which the IC50 stood at 230 ± 60 nM.
Regarding `CCC(C)(C)c1ccc(S(=O)(=O)N2C[C@H]3C[C@H]4C[C@H](C4(C)C)[C@@]3(COC(=O)Nc3ccc(I)cc3)C2)cc1` [compound 75, ((3aS,4R,6R,7aS)-5,5-dimethyl-2-((4-(tert-pentyl)phenyl)sulfonyl)octahydro-3aH-4,6-methanoisoindol-3a-yl)methyl (4-iodophenyl)carbamate], the IC50 amounted to 190 ± 70 nM.
With `CC(C)(C)c1ccc(-c2ccc(S(=O)(=O)N3C[C@H]4C[C@H]5C[C@H](C5(C)C)[C@@]4(COC(=O)Nc4ccc(I)cc4)C3)cc2)cc1` [compound 76, ((3aS,4R,6R,7aS)-2-((4'-(tert-butyl)-[1,1'-biphenyl]-4-yl)sulfonyl)-5,5-dimethyloctahydro-3aH-4,6-methanoisoindol-3a-yl)methyl (4-iodophenyl)carbamate], the IC50 is greater than 10000 nM.
With `CC1(C)[C@H]2C[C@@H]3CN(S(=O)(=O)c4ccc([Si](C)(C)C)cc4)C[C@]3(COC(=O)Nc3ccc(I)cc3)[C@@H]1C2` [compound 77, ((3aS,4R,6R,7aS)-5,5-dimethyl-2-((4-(trimethylsilyl)phenyl)sulfonyl)octahydro-3aH-4,6-methanoisoindol-3a-yl)methyl (4-iodophenyl)carbamate], the IC50 is 260 ± 90 nM.
For the compound `CC(C)(C(=O)N1CCOCC1)c1ccc(S(=O)(=O)N2C[C@H]3C[C@H]4C[C@H](C4(C)C)[C@@]3(COC(=O)Nc3ccc(I)cc3)C2)cc1` [compound 86, ((3aS,4R,6R,7aS)-5,5-dimethyl-2-((4-(2-methyl-1-morpholino-1-oxopropan-2-yl)phenyl)sulfonyl)octahydro-3aH-4,6-methanoisoindol-3a-yl)methyl (4-iodophenyl)carbamate], the IC50 came to 7300 ± 1400 nM.
Under `CN(C)C(=O)C(C)(C)c1ccc(S(=O)(=O)N2C[C@H]3C[C@H]4C[C@H](C4(C)C)[C@@]3(COC(=O)Nc3ccc(I)cc3)C2)cc1` [compound 87, ((3aS,4R,6R,7aS)-2-((4-(1-(dimethylamino)-2-methyl-1-oxopropan-2-yl)phenyl)sulfonyl)-5,5-dimethyloctahydro-3aH-4,6-methanoisoindol-3a-yl)methyl (4-iodophenyl)carbamate] stands 850 ± 270 nM; under `CN(C)CC(C)(C)c1ccc(S(=O)(=O)N2C[C@H]3C[C@H]4C[C@H](C4(C)C)[C@@]3(COC(=O)Nc3ccc(I)cc3)C2)cc1` [compound 88, ((3aS,4R,6R,7aS)-2-((4-(1-(dimethylamino)-2-methylpropan-2-yl)phenyl)sulfonyl)-5,5-dimethyloctahydro-3aH-4,6-methanoisoindol-3a-yl)methyl (4-iodophenyl)carbamate], 2500 ± 100 nM.
Regarding `CCOC(=O)C(C)(C)c1ccc(S(=O)(=O)N2C[C@H]3C[C@H]4C[C@H](C4(C)C)[C@@]3(COC(=O)Nc3ccc(I)cc3)C2)cc1` [compound 89, Ethyl 2-(4-(((3aS,4R,6R,7aS)-3a-((((4-iodophenyl)carbamoyl)oxy)methyl)-5,5-dimethyloctahydro-2H-4,6-methanoisoindol-2-yl)sulfonyl)phenyl)-2-methylpropanoate], the IC50 worked out at 250 ± 80 nM.
